Results as given in patent US10722505B2, “Substituted 2,4 diamino-quinoline as new anticancer agents” (GENOSCIENCE PHARMA, priority 2014, dated 2020).
Counter-ions that a name gives are not always drawn.

Experiments:
[1] = test system: LI0050 HCC patient derived cells; experiment: CellTiter-Glo growth inhibition, HCC patient-derived cells LI0050; assay type: cell-based, human; conditions: LI0050, 72 hours
Description: (§1) The patient derived Hepatocellular Carcinoma (HCC) cells were maintained in medium respectively described in table 15 containing 1% penicillin-streptomycin (Life Technologies, 15070-063), with a supplements for primary cell culture (PCS) containing hydrocortisone (50 nM), Epidermal Growth Factor (20 ng/ml), β-fibroblast Growth Factor (10 ng/ml), Heparin (2 μg/ml) ITS liquid media supplement (1×) and non-essential amino acid (NEAA, 0.01 mM, 1×). The primary cell were cultured in a humidified atmosphere (95% relative humidity) with 5% CO2 at 37° C.
(§2) The cell growth inhibition assay was performed as described previously in example 5 using the CellTiter-Glo® luminescent cell viability assay as described by the manufacturer (Promega, Ref G7571). The number of cells seeded per well (in 96-Well Flat Clear Bottom Black Polystyrene TC-Treated Microplates, Cat #3340, Corning®) is described in the table 16. A backseal black sticker (Cat #6005189, Perkin Elmer) was placed to the bottom of each plate before recording CellTiter-Glo® luminescence.
(§3) The experimental data are analyzed using a computer program, Graphpad Prism V 5.0 (GraphPad Software, Inc. La Jolla, Calif.) and EC50 values were determined as the dose of compound required to reduce absorbance values to 50% of the signal obtained for vehicle treated cell cultures and were a mean of at least three independent experiments.

[2] = test system: LI0574 HCC patient derived cells; experiment: CellTiter-Glo growth inhibition, HCC patient-derived cells LI0574; assay type: cell-based, human; conditions: LI0574, 72 hours
Description: as §1, §2, §3

[3] = test system: LI0612 HCC patient derived cells; experiment: CellTiter-Glo growth inhibition, HCC patient-derived cells LI0612; assay type: cell-based, human; conditions: LI0612, 72 hours
Description: as §1, §2, §3

[4] = test system: LI0752 HCC patient derived cells; experiment: CellTiter-Glo growth inhibition, HCC patient-derived cells LI0752; assay type: cell-based, human; conditions: LI0752, 72 hours
Description: as §1, §2, §3

[5] = test system: LI0801 HCC patient derived cells; experiment: CellTiter-Glo growth inhibition, HCC patient-derived cells LI0801; assay type: cell-based, human; conditions: LI0801, 72 hours
Description: as §1, §2, §3

[6] = test system: LI1005 HCC patient derived cells; experiment: CellTiter-Glo growth inhibition, HCC patient-derived cells LI1005; assay type: cell-based, human; conditions: LI1005, 72 hours
Description: as §1, §2, §3

[7] = test system: LI1098 HCC patient derived cells; experiment: CellTiter-Glo growth inhibition, HCC patient-derived cells LI1098; assay type: cell-based, human; conditions: LI1098, 72 hours
Description: as §1, §2, §3

[8] = test system: LI1646 HCC patient derived cells; experiment: CellTiter-Glo growth inhibition, HCC patient-derived cells LI1646; assay type: cell-based, human; conditions: LI1646, 72 hours
Description: as §1, §2, §3

MOLM-14 cell line [9] = experiment: CellTiter-Glo cell viability / growth inhibition assay, MOLM-14 (Example 5); assay type: cell-based; conditions: Homo sapiens, 72 h; for viability at 4 µM / viability at 10 µM: MOLM-14
Description: (§4) All cell lines were maintained in medium containing 1% penicillin-streptomycin (Dutscher, P06-07100) and 10% Fetal Bovine Serum (Gibco, W3387L) except 20% for KG-1 cell line and PBMC, and cultured at 37° C. with 5% CO2.
MOLM-14 cell line was maintained in MEM alpha medium (Gibco, 22561-021).
(§5) Cell viability was measured using the CellTiter-Glo® luminescent cell viability assay as described by the manufacturer (Promega, Ref G7571) using an Infinite F200Pro luminometer (Tecan). Briefly, for adherent cells, cells were plated onto 96-well plates (white with clear bottom) in 90 μL of media per well and were allowed to grow overnight before the assay. For cells growing in suspension, cells were plated onto 96-well plates immediately before the assay.
Compounds were added at different concentrations to each well, and cell cultures were incubated for 72 h. Vehicle (H2O) was used as a control, and all compounds were tested in a constant percentage of H2O. After addition of 100 μL of CellTiter-Glo®, luminescence was measured using an Infinite F200Pro (Tecan). EC50 values were determined as the dose of compound required to reduce luminescent values to 50% of the signal obtained for untreated cell cultures. The experimental data were analyzed using a computer program, Graphpad Prism v5 (GraphPad Software, Inc. La Jolla, Calif.).
All experiments were at least done in duplicate and repeated two independent times.

A375 cell line = experiment: CellTiter-Glo growth inhibition assay, A375; assay type: cell-based; conditions: Homo sapiens, A-375; A375, malignant melanoma, 72 h
Description: as §4
(§6) HepG2, Huh7, HCT-116, MDA-MB-231 and A375 cell lines were cultured in Dulbecco's modified Eagle's medium (Dutscher, L0103).
as §5
(§7) Compounds were added at different concentrations to each well, and cell cultures were incubated for 72 h. Vehicle (H2O) was used as a control, and all compounds were tested in a constant percentage of H2O. After addition of 100 μL of CellTiter-Glo®, luminescence was measured using an Infinite F200Pro (Tecan). EC50 values were determined as the dose of compound required to reduce luminescent values to 50% of the signal obtained for untreated cell cultures. The experimental data were analyzed using a computer program, Graphpad Prism v5 (GraphPad Software, Inc. La Jolla, Calif.). […]

HCT-116 cell line = experiment: CellTiter-Glo growth inhibition assay, HCT-116; assay type: cell-based; conditions: Homo sapiens; HCT-116, colorectal carcinoma, 72 h
Description: as §4, §6, §5, §7

HepG2 cell line = experiment: CellTiter-Glo growth inhibition assay, HepG2; assay type: cell-based; conditions: Homo sapiens; HepG2, hepatocellular carcinoma, 72 h
Description: as §4, §6, §5, §7

MOLM-14 cell line [10] = experiment: CellTiter-Glo growth inhibition assay, MOLM-14 (Example 6); assay type: cell-based, human; conditions: MOLM-14, 72 h, method of Example 6
Description: MOLM-14 cell line was cultured in MEM alpha medium supplemented with 10% v/v Fetal Bovine Serum, 1% Penicillin-Streptomycin and maintained at 37° C. with 5% CO2. 10,000 cells were plated onto 96-well plates immediately before the assay.
Each compound was added at different concentrations (combinations of six concentrations) to each well, and cell cultures were incubated for 72 h. Vehicle (H2O) was used as a control, and all compounds were tested in a constant percentage of vehicle. Cell outgrowth was measured using the CellTiter-Glo® luminescent cell viability assay as described by the manufacturer (Promega, Ref G7571 Madison, Wis., USA) using a Centro (Berthold, France) plate reader.
In each experiment, each point represents the average of triplicates in cell culture.
The experimental data are analyzed using a computer program, Graphpad Prism v5 (GraphPad Software, Inc. La Jolla, Calif.) and EC50 values were determined as the dose of compound required to reduce absorbance values to 50% of the signal obtained for vehicle treated cell cultures.

[11] = test system: ALDH+ (CSC) population of MOLM-14 cell line; experiment: Aldefluor kit assay, ALDH+ compartment in MOLM-14; assay type: cell-based, human; conditions: 72 h, control = 100
Text: Analysis of the of aldehyde dehydrogenase (ALDH) compartment and high activity level of aldehyde dehydrogenase activity (ALDH+) was used to detect tumor initiating cells (cancer stem cells, CSC) population. The Aldefluor™ kit assay (StemCell Technologies, 01700) allowed to assess the activity of drugs on CSC cells like in a MOLM-14 acute myeloid leukemia cell line population (ref: Storms, R. W., Trujillo, A. P., Springer, J. B., Shah, L., Colvin, O. M., Ludeman, S. M., & Smith, C. (1999). Isolation of primitive human hematopoietic progenitors on the basis of aldehyde dehydrogenase activity. Proceedings of the National Academy of Sciences, 96(16), 9118-9123). The Aldefluor™ kit assay was used according to the procedure described by the manufacturer. Briefly, MOLM-14 cell line was cultured in MEM alpha medium supplemented with 10% v/v Fetal Bovine Serum, 1% Penicillin-Streptomycin and maintained at 37° C. with 5% CO2. 5·10^5 cells were used in this assay. Each compound was added at different concentrations (see table 8), and cell cultures were incubated for 72 h. Vehicle (H2O) was used as a control, and all compounds were tested in a constant percentage of vehicle. Cells obtained from cell culture were incubated for 45 minutes at 37° C. with Aldefluor™ buffer assay containing the Bodipy™-aminoacetaldehyde, a fluorescent ALDH aldehyde substrate. ALDH converts the fluorescent substrate BAAA to the Bodipy™-aminoacetic acid (BAA) which is retained in the cell. An active efflux inhibitor is present in the Adelfluor™ assay buffer in order to avoid the active efflux from the cell of the substrate product ALDH dependent converted BAA. The fluorescent signal is directly proportional to the ALDH activity in the cells and is measured by flow cytometry. A negative control is used to measure the background fluorescence level. For such purpose, 4-(N,N-diethylamino)-benzaldehyde (DEAB) was used as selective ALDH inhibitor. A viability cell count was performed using LIVE/DEAD® Fixable Far Red Dead Cell Stain Kit (Invitrogen). The experimental data are analyzed using a computer program, Graphpad Prism v5 (GraphPad Software, Inc. La Jolla, Calif.) and EC50 values were determined as the dose of compound required to reduce absorbance values to 50% of the signal obtained for vehicle treated cell cultures.

CAKI-1 cell line = experiment: CellTiter-Glo growth inhibition assay, CAKI-1; assay type: cell-based; conditions: Homo sapiens, CAKI-1, 72 h
Description: (§8) CAKI-1 and 786-0 cell lines were maintained in RPMI 1640 medium (Dutscher, L0498) containing 1% penicillin-streptomycin (Dutscher, P06-07100) and 10% Fetal Bovine Serum (Gibco, W3387L) and cultured at 37° C. with 5% CO2.
(§9) Cell viability was measured using the CellTiter-Glo® luminescent cell viability assay as described by the manufacturer (Promega, Ref G7571) using an Infinite F200Pro luminometer (Tecan). Briefly, cells were plated onto 96-well plates (white with clear bottom) in 90 μL of media per well and were allowed to grow overnight before the assay.
(§10) Compounds 2-3 and two reference compounds (Sorafenib and Sunitinib) were added at different concentrations to each well, and cell cultures were incubated for 72 h. For compound 2-3 analysis, H2O was used as a negative control (=untreated) and all concentrations were tested in a constant percentage of H2O. For Sorafenib and Sunitinib analysis, DMSO was used as a negative control (=untreated) and all concentrations were tested in a constant percentage of DMSO. 72 h after incubation of compounds, 100 μL of CellTiter-Glo® were added to each well and luminescence was measured using an Infinite F200Pro (Tecan). EC50 values were determined as the dose of compound required to reduce luminescent values to 50% of the signal obtained for untreated cell cultures. The experimental data were analyzed using a computer program, Graphpad Prism v5 (GraphPad Software, Inc. La Jolla, Calif.). All experiments were at least done in triplicate and repeated at least three independent times.

786-O cell line = experiment: CellTiter-Glo growth inhibition assay, 786-O; assay type: cell-based; conditions: Homo sapiens, 786-0, 72 h
Description: as §8, §9, §10

Compound: N.N.[Cl][Pt][Cl] [Cisplatin]
- EC50 [1]: 1.3 µM
- EC50 [2]: 3.6 µM
- EC50 [3]: 16.3 µM
- EC50 [4]: 2.6 µM
- EC50 [5]: 1.5 µM
- EC50 [6]: 5.9 µM
- EC50 [7]: 5.1 µM
- EC50 [8]: 10 µM

Compound: CC(C)(C)NC1CCN(c2cc(Nc3ccc(Cl)cc3)nc3ccccc23)CC1 [Compound 1-6, 2-(4-chlorophenylamino)-4-(4-tert-butylaminopiperidin-1-yl)-quinoline hydrochloride salt]
- viability at 4 µM (MOLM-14 cell line [9]): 71.8%
- viability at 10 µM (MOLM-14 cell line [9]): 12.1%

Compound: Cc1cc(Nc2cc(N3CCC(NC(C)(C)C)CC3)c3ccccc3n2)ccc1Nc1ncccn1 [Compound 3-5, 2-[3-methyl-4-(pyrimidin-2-ylamino)phenylamino]-4-(4-tert-butylaminopiperidin-1-yl)-quinoline hydrochloride salt]
- viability at 4 µM (MOLM-14 cell line [9]): 78.7%
- viability at 10 µM (MOLM-14 cell line [9]): 8.7%

Compound: Cc1cc(Nc2cc(N3CCC(NC(C)(C)C)CC3)c3ccccc3n2)ccc1Nc1nccc(-c2cccnc2)n1 [Compound 4-3, 2-{4-[4-(pyridin-3-yl)-2-pyrimidinamino]-3-methyl-phenylamino}-4-(4-tert-butylaminopiperidin-1-yl)-quinoline hydrochloride salt]
- viability at 4 µM (MOLM-14 cell line [9]): 0.5%
- viability at 10 µM (MOLM-14 cell line [9]): 0.2%
- EC50 (MOLM-14 cell line [9]; MOLM-14, acute myeloïd leukemia, FLT3-ITD heterozygote+/−): 2.3 µM
- EC50 (A375 cell line): 1.4 µM
- EC50 (HCT-116 cell line): 1.8 µM
- EC50 (HepG2 cell line): 6.3 µM

Compound: Nc1ccn([C@@H]2O[C@H](CO)[C@@H](O)[C@@H]2O)c(=O)n1 [Cytarabin, reference compound]
- EC50 (MOLM-14 cell line [10]): 0.29 µM
- ALdefluor positive CSCs (%) ([11]; MOLM-14, 1 μM): 130%
- ALdefluor positive CSCs (%) ([11]; MOLM-14, 3 μM): 116%

Compound: CNC(=O)c1cc(Oc2ccc(NC(=O)Nc3ccc(Cl)c(C(F)(F)F)c3)cc2)ccn1 [Sorafenib]
- EC50 (CAKI-1 cell line): 4.5 µM
- EC50 (786-O cell line): 6.8 µM
- EC50 ([1]; Homo sapiens): 9.1 µM
- EC50 ([2]; Homo sapiens): 8.7 µM
- EC50 ([3]; Homo sapiens): 17.9 µM
- EC50 ([4]; Homo sapiens): 6.3 µM
- EC50 ([5]; Homo sapiens): 5.7 µM
- EC50 ([6]; Homo sapiens): 14.5 µM
- EC50 ([7]; Homo sapiens): 10.9 µM
- EC50 ([8]; Homo sapiens): 10.3 µM

Compound: CCN(CC)CCNC(=O)c1c(C)[nH]c(/C=C2\C(=O)Nc3ccc(F)cc32)c1C [Sunitinib]
- EC50 (CAKI-1 cell line): 1.7 µM
- EC50 (786-O cell line): 6 µM
